The nature of series [1]: Self-diffusion NMR (SD-NMR). Format: physicochemical. On the procedure: In order to characterize the structure of the oily domains, self-diffusion NMR (SD-NMR) analysis was carried out. SD-NMR analysis provides an indication on the location of each component within the structure, by calculating the diffusion coefficient of each component in the system.
SD-NMR measurements were performed with a Bruker AVII 500 spectrometer equipped with GREAT 1/10 gradients, a 5 mm BBO and a 5 mm BBI probe, both with a z-gradient coil and with a maximum gradient strength of 0.509 and 0.544 T m^−1, respectively. Diffusion was measured using an asymmetric bipolar longitudinal eddy-current delay (bpLED) experiment, or and asymmetric bipolar stimulated echo (known as one-shot) experiment with convection compensation and an asymmetry factor of 20%, ramping the strongest gradient from 2% to 95% of maximum strength in 32 steps. The spectrum was processed with the Bruker TOPSPIN software. NMR spectra were recorded at 25±0.2° C. The components were identified by their chemical shift in 1H NMR.

Series [2] is described as follows: Water dilution of the oily phase. Format: physicochemical. The note with it: oily phase loaded with active; un-loaded phase separates above 50 wt % water. As to the method: 2 wt % DCF-Na loaded oily composition which is substantially devoid of water (i.e. a concentrate) was prepared according to the process described above. The un-diluted oily composition was constituted by self-assembled oil-solvated clusters or short domains of surfactants, which differ from the classical reverse micelles. These concentrates are dilutable by any suitable diluent, for example by purified water, to form a diluted delivery system.
It was noted that the oily carrier, i.e. the oily composition without DCF-Na, could not be fully diluted.

With `O=C([O-])Cc1ccccc1Nc1c(Cl)cccc1Cl.[Na+]` [DCF-Na, diclofenac sodium], the “Diffusion coefficient Dx of DCF-Na” value in series [1] (2 wt % DCF-Na formulation, FIGS. 11A-11B) was 0.1×10^−11 m^2/sec. Further, in series [1] (80 wt % water, 0.75 wt % gellant), the “Diffusion coefficient of DCF-Na, gelled vs non-viscosified” value is “lower in the gelled formulation than in the non-viscosified system”. The “Dilutability of the oily phase with water” value in series [2] is “fully dilutable up to 90 wt %”.
